Source: patent US10837909B2, “Super-resolution fluorescent imaging probe” (The University of Tokyo, priority 2015, dated 2020)

What was measured:
[1] = Laser flash photolysis: nucleophilic addition reaction rate constant and time constant with glutathione; format: physicochemical; details: pH 7.4, 10 mM sodium phosphate buffer, 295 K
Experimental: Change over time of transient absorption of the probe compounds of the present invention at various glutathione concentrations was measured using laser flash photolysis, and a nucleophilic addition reaction rate constant k and a nucleophilic addition reaction rime constant T in the nucleophilic addition-dissociation equilibrium reaction between glutathione and the probe compounds of the present invention were calculated. The solution conditions were […] aqueous solution and pH 7.4 (10 mM sodium phosphate buffer). A measurement condition was 295 K and a light source was a 10 mJ/pulse XeCl excimer laser ([…]).

[2] = Measurement of the fluorescence quantum yield; format: physicochemical; details: 1 μM probe, 1% DMSO aqueous solution, pH 7.4 (200 mM sodium phosphate buffer)
Experimental: Fluorescence quantum yield of the probe compounds according to the present invention was measured. The solution conditions were 1 μM probe compound, 1% DMSO aqueous solution, and pH 7.4 (200 mM sodium phosphate buffer).

Row | SMILES | k (nucleophilic addition reaction rate constant) ([1]; glutathione 0.5 mM) [s⁻¹] | τ (nucleophilic addition reaction time constant) ([1]; glutathione 0.5 mM) [ms] | k (nucleophilic addition reaction rate constant) ([1]; glutathione 1 mM) [s⁻¹] | τ (nucleophilic addition reaction time constant) ([1]; glutathione 1 mM) [ms] | k (nucleophilic addition reaction rate constant) ([1]; glutathione 5 mM) [s⁻¹] | τ (nucleophilic addition reaction time constant) ([1]; glutathione 5 mM) [ms] | k (nucleophilic addition reaction rate constant) ([1]; glutathione 10 mM) [s⁻¹] | τ (nucleophilic addition reaction time constant) ([1]; glutathione 10 mM) [ms] | k (nucleophilic addition reaction rate constant) ([1]; glutathione 0.1 mM) [s⁻¹] | τ (nucleophilic addition reaction time constant) ([1]; glutathione 0.1 mM) [ms] | Fluorescence quantum yield [2]
1 | C[Si]1(C)C2=CC(=N)C=CC2=C(c2ccccc2)c2ccc(N)cc21 [Compound 2] | 1.21 | 823 | 2.05 | 487 | 11.0 | 90.7 | 25.0 | 40.1 |  |  | 
2 | CN(C)c1ccc2c(c1)[Si](C)(C)C1=CC(=[N+](C)C)C=CC1=C2 [Compound 5] | 95.8 | 10.4 | 176.2 | 5.67 | 976 | 1.02 | 2290 | 0.436 | 14.3 | 69.9 | 0.39
3 | CN(C)c1ccc2c(c1)[Si](C)(C)C1=C/C(=[N+](\C)CCCC(=O)NCc3ccc(COc4nc(N)nc5[nH]cnc45)cc3)C=CC1=C2 [Compound 14] |  |  |  |  |  |  |  |  |  |  | 0.27
4 | CC1(C)C2=CC(=N)C=CC2=Cc2ccc(N)cc21 [Compound 28] | 195 | 5.12 | 371 | 2.69 | 2170 | 0.46 | 5260 | 0.19 | 21.1 | 47.5 | 0.70
5 | CN(C)c1ccc2c(c1)[Si](C)(C)C1=C/C(=[N+](\C)CCCC(=O)ON3C(=O)CCC3=O)C=CC1=C2 [Compound 17] |  |  |  |  |  |  |  |  |  |  | 0.46
6 | CN(C)c1ccc2c(c1)[Si](C)(C)C1=C/C(=[N+](\C)CCCC(=O)NCCOCCOCCCCCCCl)C=CC1=C2 [Compound 16] |  |  |  |  |  |  |  |  |  |  | 0.49
7 | CC1(C)C2=C/C(=N/CCCC(=O)O)C=CC2=Cc2ccc(N)cc21 [Compound 32] | 61.7 | 16.2 | 106 | 9.45 | 592 | 1.69 | 1410 | 0.71 | 15.8 | 63.1 | 0.69
8 | CN(C)c1ccc2c(c1)[Si](C)(C)C1=C/C(=[N+](\C)CCCC(=O)O)C=CC1=C2 [Compound 12] | 42.8 | 23.4 | 75.6 | 13.2 | 444 | 2.25 | 1080 | 0.93 | 7.49 | 134 | 0.46
